From patent US7531539B2, “Pyrrolotriazine kinase inhibitors” (Bristol-Myers Squibb Company, priority 2006, dated 2009)

Tests used:
Format in all cases: biochemical
[1] = target: Casein Kinase 2 A1 kinase (Homo sapiens, UniProt P68400); assay: CK2A1 kinase assay (33P, TCA precipitation)
Procedure: (§1) Incubation mixtures employed for the Casein Kinase 2 A1 kinase assay contain Casecin Kinase 2 A1 kinase, a synthetic peptide substrate, ATP, ATP-γ-^33 P and a Hepes buffer containing Mg^2+, NaCl, DTT, and Brij-35. Reactions were incubated for 60 minutes at 30° C. and stopped by the addition of trichloroacetic acid (TCA) to a final concentration 8%. TCA precipitates were collected onto GF/C unifilter plates using a Filtermate universal harvester and the filters are quantitated using a TopCount 96/384-well liquid scintillation counter. Dose response curves were generated to determine the concentration required to inhibit 50% of kinase activity (IC50). Compounds were dissolved at 10 mM in dimethyl sulfoxide (DMSO) and evaluated at ten concentrations, each in duplicate. The final concentration of DMSO in the assay is 1.7%. IC50 values were derived by non-linear regression.

[2] = target: Casein Kinase 2 A2 kinase (Homo sapiens, UniProt P19784); assay: CK2A2 kinase assay (33P, TCA precipitation)
Procedure: as §1, with “A2” for “A1”, “Casein” for “Casecin”, “ATP-γ^33P” for “ATP-γ-^33 P”, “Mg^++,” for “Mg^2+,”, “(IC^50).” for “(IC50).”

[3] = target: T1, kinase domain of the human TrkB receptor (amino acids 526-838) (Homo sapiens, UniProt Q16620); assay: TrkB tyrosine kinase assay (33P, polyGluTyr substrate); conditions: 30 uM ATP, 0.1 mg/ml PGT
T1 construct: human TrkB receptor (amino acids 526-838); His; purchased Invitrogen; host or cells: insect cells
Procedure: The ability of compounds of the present invention to inhibit tyrosine kinase activity of TrkB may be measured using a recombinant enzyme in an assay that measures the ability of compounds to inhibit the phosphorylation of the exogenous substrate, polyGluTyr (PGT, 4:1). The kinase domain of the human TrkB receptor (amino acids 526-838) is expressed in insect cells as a histidine (His)-fusion protein and is commercially available from Invitrogen™. The enzyme assay is performed in a 96-well plate. Test compounds are first dissolved in dimethylsulfoxide (DMSO) and then serially-diluted in a 96-well plate. The serially-diluted compounds are transferred to the 96-well assay plate so that the final concentration of DMSO in the enzyme assay is 1.64%. All assay components are diluted in phosphorylation buffer (20 mm MOPS, 10 mM MgCl2, 1 mM EDTA, 0.015% Brij-35, 0.1 mg/ml BSA, 0.0025% Beta-Mercaptoethanol). The recombinant enzyme is added to the assay plate containing test compound and the reaction is initiated with a substrate solution containing a final concentration of 0.1 mg/ml PGT, 30 uM ATP, and 0.008 mCi/ml ^33P-gammaATP (3000 Ci/mmol). After a 1 hour incubation at 30° C., the reaction is terminated with 10% TCA and incubated at 4° C. for 1 hour. The reaction is filtered onto a Unifilter® GF/C™ filter plate that has been pre-soaked with 0.1M NaPyrophosphate. Microscint-20 is then added to the dried filter plate and the captured ^33P-phosphorylated PGT is quantitated on a microscintillation plate counter (TopCount.NXT™). Inhibition of the kinase enzymatic activity by the test compound is detected by a reduction in scintillation, and the concentration of compound that is required to inhibit the signal by 50% is reported as the IC50 value for the test compound.
(§2) Compounds described herein were tested in the TrkA and TrkB assays described above.

[4] = target: T2, kinase domain of the human TrkA receptor (Homo sapiens, UniProt P04629); assay: TrkA tyrosine kinase assay (33P, polyGluTyr substrate); conditions: 30 uM ATP, 0.1 mg/ml PGT
T2 construct: The kinase domain of the human TrkA receptor is expressed in Sf9 insect cells as a histidine (His)-fusion protein; His; made in house; host or cells: Sf9 insect cells (baculovirus)
Description: The ability of compounds of the present invention to inhibit tyrosine kinase activity of TrkA may be measured using a recombinant enzyme in an assay that measures the ability of compounds to inhibit the phosphorylation of the exogenous substrate, polyGluTyr (PGT, 4:1). The kinase domain of the human TrkA receptor is expressed in Sf9 insect cells as a histidine (His)-fusion protein using a baculovirus expression system. The protein is purified from the lysates of these cells using an Ni—NTA affinity column. After the recombinant enzyme is purified, it is activated by incubation with cold ATP. The enzyme assay is performed in a 96-well plate. Test compounds are first dissolved in dimethylsulfoxide (DMSO) and then serially-diluted in a 96-well plate. The serially-diluted compounds are transferred to the 96-well assay plate so that the final concentration of DMSO in the enzyme assay is 1.64%. All assay components are diluted in phosphorylation buffer (20 mm MOPS, 10 mM MgCl2, 1 mM EDTA, 0.015% Brij-35, […], 0.0025% Beta-Mercaptoethanol). The recombinant enzyme is added to the assay plate containing test compound and the reaction is initiated with a substrate solution containing a final concentration of 0.1 mg/ml PGT, 30 uM ATP, and 0.008 mCi/ml ^33P-gammaATP (3000 Ci/mmol). After a 1 hour incubation at 30° C., the reaction is terminated with 10% TCA and incubated at 4° C. for 1 hour. The reaction is filtered onto a Unifilter® GF/C™ filter plate that has been presoaked with 0.1M NaPyrophosphate. Microscint-20 is then added to the dried filter plate and the captured ^33P-phosphorylated PGT is quantitated on a microscintillation plate counter (TopCount.NXT™). Inhibition of the kinase enzymatic activity by the test compound is detected by a reduction in scintillation, and the concentration of compound that is required to inhibit the signal by 50% is reported as the IC50 value for the test compound.
as §2

Chain of Casein Kinase 2 A1 kinase (P68400 whole entry): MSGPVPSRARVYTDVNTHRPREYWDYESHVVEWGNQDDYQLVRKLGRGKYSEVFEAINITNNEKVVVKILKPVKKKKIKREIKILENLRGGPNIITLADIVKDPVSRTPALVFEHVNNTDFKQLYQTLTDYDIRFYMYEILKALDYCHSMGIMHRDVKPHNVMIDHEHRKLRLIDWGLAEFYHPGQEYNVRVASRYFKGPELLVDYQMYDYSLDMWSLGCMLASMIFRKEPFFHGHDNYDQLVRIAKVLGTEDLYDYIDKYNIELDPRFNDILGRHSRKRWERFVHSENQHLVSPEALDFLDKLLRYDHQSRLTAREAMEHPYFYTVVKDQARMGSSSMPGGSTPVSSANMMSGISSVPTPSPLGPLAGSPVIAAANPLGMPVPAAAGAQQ
Chain of Casein Kinase 2 A2 kinase (P19784 whole entry): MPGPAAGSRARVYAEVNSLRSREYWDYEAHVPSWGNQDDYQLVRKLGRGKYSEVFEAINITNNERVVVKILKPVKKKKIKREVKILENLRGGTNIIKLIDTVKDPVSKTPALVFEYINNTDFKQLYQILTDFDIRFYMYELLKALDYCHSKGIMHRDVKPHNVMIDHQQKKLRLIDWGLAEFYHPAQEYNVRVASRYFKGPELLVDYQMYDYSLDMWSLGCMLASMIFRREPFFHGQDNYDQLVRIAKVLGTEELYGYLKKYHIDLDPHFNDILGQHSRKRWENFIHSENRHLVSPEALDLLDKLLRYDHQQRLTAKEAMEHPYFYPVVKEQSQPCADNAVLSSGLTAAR
T2 sequence (P04629 510-781 limits assumed): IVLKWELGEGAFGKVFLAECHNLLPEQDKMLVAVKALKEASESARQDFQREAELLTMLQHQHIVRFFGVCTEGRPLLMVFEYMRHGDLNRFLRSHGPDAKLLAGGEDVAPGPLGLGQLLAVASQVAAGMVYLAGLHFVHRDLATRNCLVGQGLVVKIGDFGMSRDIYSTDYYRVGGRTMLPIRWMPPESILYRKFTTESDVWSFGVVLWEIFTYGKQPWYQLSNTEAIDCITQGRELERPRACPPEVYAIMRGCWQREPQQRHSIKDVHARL
T1 sequence (Q16620 510-822): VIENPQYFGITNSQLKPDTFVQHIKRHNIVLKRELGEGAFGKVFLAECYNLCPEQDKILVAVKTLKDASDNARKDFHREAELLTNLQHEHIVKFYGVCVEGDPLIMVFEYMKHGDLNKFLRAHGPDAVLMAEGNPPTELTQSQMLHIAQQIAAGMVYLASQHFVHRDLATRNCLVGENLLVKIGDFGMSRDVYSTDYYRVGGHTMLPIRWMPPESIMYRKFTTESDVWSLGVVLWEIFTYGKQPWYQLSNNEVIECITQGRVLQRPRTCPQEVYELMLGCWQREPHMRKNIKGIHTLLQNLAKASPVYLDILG

Row | Compound | IC50 [1] [nM] | IC50 [2] [nM] | IC50 [3] [nM] | IC50 [4] [nM]
1 | Cc1cc(Nc2nc(N3CCC(c4ccncc4)CC3)nn3cccc23)[nH]n1 [Example 203, N-(3-methyl-1H-pyrazol-5-yl)-2-(4-(pyridin-4-yl)piperidin-1-yl)pyrrolo[1,2-f][1,2,4]triazin-4-amine] | 243 | 56 |  | 
2 | Cc1cc(Nc2nc(N3CCNCC3)nn3cccc23)n[nH]1 [Example 74, N-(5-methyl-1H-pyrazol-3-yl)-2-(1-piperazinyl)pyrrolo[2,1-f][1,2,4]triazin-4-amine] |  |  | 195 | 120
3 | c1cncc(C2CCN(c3nc(Nc4cc(C5CC5)n[nH]4)c4cccn4n3)C2)c1 (stereo not drawn) [Example 181, N-(3-cyclopropyl-1H-pyrazol-5-yl)-2-(3-(pyridin-3-yl)pyrrolidin-1-yl)pyrrolo[1,2-f][1,2,4]triazin-4-amine] | 84 | 6 |  | 
4 | CCc1cc(Nc2nc(N3CCC(c4ccccc4F)C3)nn3cccc23)[nH]n1 (stereo not drawn) [Example 171, N-(3-Ethyl-1H-pyrazol-5-yl)-2-(3-(2-fluorophenyl)pyrrolidin-1-yl)pyrrolo[1,2-f][1,2,4]triazin-4-amine] | 154 | 11 |  | 
5 | N[C@H]1CCN(c2nc(Nc3cc(C4CC4)n[nH]3)c3cccn3n2)C1 [Example 91] |  |  | 10 | 5
6 | Cc1cc(Nc2nc(N3CC[C@@H](O)C3)nn3cccc23)n[nH]1 [Example 70, (3R)-1-(4-((5-methyl-1H-pyrazol-3-yl)amino)pyrrolo[2,1-f][1,2,4]triazin-2-yl)-3-pyrrolidinol] |  |  | 38 | 23
7 | NC1CCN(c2nc(Nc3cc(C4CC4)n[nH]3)c3cccn3n2)CC1 [Example 3, 2-(4-amino-1-piperidinyl)-N-(3-cyclopropyl-1H-pyrazol-5-yl)pyrrolo[2,1-f][1,2,4]triazin-4-amine] |  |  | 2 | 0.6
8 | O=C(CCc1ccccc1)NC1CCN(c2nc(Nc3cc(C4CC4)n[nH]3)c3cccn3n2)CC1 [Example 43, N-(1-(4-((3-cyclopropyl-1H-pyrazol-5-yl)amino)pyrrolo[2,1-f][1,2,4]triazin-2-yl)-4-piperidinyl)-3-phenylpropanamide] |  |  | 0.5 | 0.4
9 | Cc1cc(Nc2nc(N3CCC(c4ccccc4)C3)nn3cccc23)[nH]n1 (stereo not drawn) [Example 186, N-(5-methyl-1H-pyrazol-3-yl)-2-(3-phenylpyrrolidin-1-yl)pyrrolo[1,2-f][1,2,4]triazin-4-amine] | 294 | 39 |  | 
10 | CCC(C)c1cc(Nc2nc(N3CCC(N)CC3)nn3cccc23)[nH]n1 (stereo not drawn) [Example 19, 2-(4-amino-1-piperidinyl)-N-(3-sec-butyl-1H-pyrazol-5-yl)pyrrolo[2,1-f][1,2,4]triazin-4-amine] |  |  | 20 | 9
11 | NC1CCN(c2nc(Nc3ccn[nH]3)c3cccn3n2)CC1 [Example 4, 2-(4-amino-1-piperidinyl)-N-1H-pyrazol-5-ylpyrrolo[2,1-f][1,2,4]triazin-4-amine] |  |  | 312 | 123
12 | Cc1cc(Nc2nc(N3CCCC3)nn3cccc23)n[nH]1 [Example 75, N-(5-methyl-1H-pyrazol-3-yl)-2-(1-pyrrolidinyl)pyrrolo[2,1-f][1,2,4]triazin-4-amine] |  |  | 9 | 5
13 | O=C(Cc1cccs1)NC1CCN(c2nc(Nc3cc(C4CC4)n[nH]3)c3cccn3n2)CC1 [Example 49, N-(1-(4-((3-cyclopropyl-1H-pyrazol-5-yl)amino)pyrrolo[2,1-f][1,2,4]triazin-2-yl)-4-piperidinyl)-2-(2-thienyl)acetamide] |  |  | 0.6 | 0.9
14 | Cc1cc(Nc2nc(N3CCOCC3)nn3cccc23)[nH]n1 [Example 95, N-(3-methyl-1H-pyrazol-5-yl)-2-(4-morpholinyl)pyrrolo [2,1-f][1,2,4]triazin-4-amine] |  |  | 49 | 23
15 | N#CCC(=O)NC1CCN(c2nc(Nc3cc(C4CC4)n[nH]3)c3cccn3n2)CC1 [Example 39, 2-cyano-N-(1-(4-((3-cyclopropyl-1H-pyrazol-5-yl)amino)pyrrolo[2,1-f][1,2,4]triazin-2-yl)-4-piperidinyl)acetamide] |  |  | 0.7 | 1
16 | Cc1cc(Nc2nc(N3CCCC(c4ccccc4)C3)nn3cccc23)[nH]n1 (stereo not drawn) [Example 204, N-(3-methyl-1H-pyrazol-5-yl)-2-(3-phenylpiperidin-1-yl)pyrrolo[1,2-f][1,2,4]triazin-4-amine] | 1860 | 228 |  | 
17 | c1ccc(CNC2CCN(c3nc(Nc4cc(C5CC5)n[nH]4)c4cccn4n3)CC2)cc1 [Example 8, 2-(4-(benzylamino)-1-piperidinyl)-N-(3-cyclopropyl-1H-pyrazol-5-yl)pyrrolo[2,1-f][1,2,4]triazin-4-amine] |  |  | 0.3 | 0.3
18 | CC(C)(C)c1cc(Nc2nc(N3CCC(N)CC3)nn3cccc23)[nH]n1 [Example 21, 2-(4-amino-1-piperidinyl)-N-(3-tert-butyl-1H-pyrazol-5-yl)pyrrolo[2,1-f][1,2,4]triazin-4-amine] |  |  | 86 | 56
19 | NC1CCN(c2nc(Nc3cc(OCC4CC4)n[nH]3)c3cccn3n2)CC1 [Example 14, 2-(4-amino-1-piperidinyl)-N-(3-(cyclopropylmethoxy)-1H-pyrazol-5-yl)pyrrolo[2,1-f][1,2,4]triazin-4-amine] |  |  | 3 | 1
20 | C[C@H]1C[C@@H]1c1cc(Nc2nc(N3CCC(N)CC3)nn3cccc23)[nH]n1 [Example 18, 2-(4-amino-1-piperidinyl)-N-(3-((1S,2S)-2-methylcyclopropyl)-1H-pyrazol-5-yl)pyrrolo[2,1-f][1,2,4]triazin-4-amine] |  |  | 1 | 0.8
21 | NCC1CCN(c2nc(Nc3cc(-c4ccccc4)n[nH]3)c3cccn3n2)CC1 [Example 97, 2-(4-(aminomethyl)-1-piperidinyl)-N-(3-phenyl-1H-pyrazol-5-yl)pyrrolo[2,1-f][1,2,4]triazin-4-amine] |  |  | 48 | 24
